Laboratory results from patent US7528144B2, “Molecules and methods for fluorescence microscopy” (WiSys Technology Foundation, Inc., priority 2005, dated 2009).

Tests used:
lysosomes = experiment: Colocalization with Lysotracker Red by fluorescence microscopy; type: cell-based; details: live THP-1 cells
Method: (§1) A. LTI studies: Aliquots of THP-1 cells (Cell densities were 1×10^6 cells per mL) were exposed to either 100 nM InstantLyso LLT-1 in RPMI 1640 medium with 10% FCS at 37° C., 5% CO2, both InstantLyso LLT-1 and 100 nM Lysotracker Red (Molecular Probes, Eugene Oreg.), or both InstantLyso LLT-1 and at a concentration of 75 nM. Mitotracker Red (Molecular Probes). In each case, medium is first pipetted off cells, then warmed medium containing dyes is added. The cell suspension is incubated for 30 minutes at 37° C. and examined by microscopy.
Colocalization of InstantLyso LLT-1 with Lysotracker red were performed under the following conditions: Live THP-1 Leukemic monocytes were grown in RPMI 1640 medium at 37C. and 5% CO2 for 5 days. 2 mL of cells were allowed to adhere to a Biocoat (polylysine coated) glass bottomed cell culture plate for 30 minutes at 37C. The old medium was removed and 2 mLs of 37 C fresh media containing 1 00 nM InstantLyso LLT-1 (from 10 μM DMSO stock) and 100 nM Lysotracker Red (from 1 mM DMSO stock) was added. Cells were incubated at 37C for 30 minutes. And visualized with an inverted epifluorescence microscope at 600× using a blue/purple (450/50 ex and 510/50 em with D480 mirror) cube for InstantLyso LLT-1 and a green (560/50 ex and 646/40 em with D595 mirror). Exposure was automatic. Temperature was ambient. […]

mitochondria = experiment: Colocalization with Mitotracker Red by fluorescence microscopy; type: cell-based
Method: as §1
(§2) B. InstantLipo Sep-1 studies: Aliquots of either THP-1 cells or adherent human fibroblasts were exposed to either 200 nM InstantLipo Sep-1in RPMI 1640 medium with 10% FCS at 37 C, 5% CO2, both InstantLipo Sep-1and Vybrant lipid raft kit (Molecular Probes, used according to the manufacturer's instructions), both InstantLipo Sep-1and Mitotracker Red (Molecular Probes, used according to the manufacturer's instructions), or both InstantLipo Sep-1and Lysotracker Red. Cells were incubated at 37° C. for at least 20 minutes. […] Some of the punctate structures moved rapidly when observed by confocal microscopy in living cells. Conditions for colocalization are as follows: Live THP-1 Leukemic monocytes were grown in RPMI 1640 medium at 37 C and 5% CO2 for 5 days. […]

cholesterol-rich domains = experiment: Staining of fibroblasts treated with cholesterol transport inhibitor U18666A; type: cell-based, human; details: foreskin fibroblasts, 3 μg/mL U18666A overnight, 150 nM dye, 30 minutes
Method: Similarly, 3 μg/mL from H20 stock of aminoesterol U18666A (Calbiochem)) is often used with fibroblasts to inhibit intracellular cholesterol transport and leads to accumulation of cholesterol in nuclear regions (C. F. Roff, E. Goldin, M. E. Comly, A. Cooney, A. Brown, M. T. Vanier, S. P. Miller, R. O. Brady and P. G. Pentchev, Dev Neurosci 13 (1991) 315-9). Foreskin fibroblasts were grown on coverslips for 1 day in EMEM. Medium was removed and replaced with 2 mL fresh EMEM to ensure consistent treatment as cells that were treated with U18666A. Cells were incubated at 37° C. and 5% CO2 overnight. Medium was removed and replaced with 2 mL EMEM containing 200 nM InstantLipo Sep-1. Cells were then incubated at 37° C. and 5% CO2 for 30 minutes to allow dye to load. Cells were imaged using an epifluorescence microscope at 1000× magnification while excited with a purple cube.
Foreskin fibroblasts were grown on coverslips for 3 days in EMEM. Medium was removed and replaced with 2 mL EMEM containing 3μg/mL U18666A. Cells were incubated at 37° C. and 5% CO2 overnight. Medium was removed and replaced with 2 mL EMEM containing 150 nM InstantGolgi McN-1. Cells were then incubated at 37° C. and 5% CO2 for 30 minutes to allow dye to load. […] This is consistent with the staining of more numerous and pathological cholesterol-rich domains and vesicles. […]

THP-1 cells [1] = details: FIG. 24, concentration not given
THP-1 cells [2] = experiment: Staining pattern in live THP-1 cells; type: cell-based; details: THP-1 monocytic cells, 100 nM dye, 30 minutes
Method: as §1, §2

CCCCCCN1C(=O)c2cccc3c(NCCNS(=O)(=O)c4ccc(C)cc4)ccc(c23)C1=O [InstantGolgi McN-1, N-hexyl-4-[2-(4-toluensulfonyl)aminoethyl]amino-1,8-naphthalimide]
colocalization with lysosomes (Lysotracker Red) (lysosomes; 150 nM dye + 75 nM Lysotracker Red): limited colocalization with lysosomes and mitochondria | colocalization with mitochondria (MitoTracker Red) (mitochondria; live THP-1 cells, 150 nM dye + 50 nM MitoTracker Red): limited colocalization with lysosomes and mitochondria | staining change after U18666A (cholesterol-rich domains): more punctate bright spots in cells after inhibition | cytotoxicity / viability (Trypan blue) (THP-1 cells [1]): no significant cytotoxicity

CCCCCCN1C(=O)c2cccc3c(NCCN)ccc(c23)C1=O [InstantLyso LLT-1, 6-(2-aminoethyl)amino-2-hexyl-1H-benz[de]isoquinoline-1,3-(2H)-dione]
co-localization with Lysotracker Red (lysosomes; 100 nM dye + 100 nM Lysotracker Red, 30 minutes): positive co-localization | co-localization with Mitotracker Red (mitochondria; THP-1 cells, 100 nM dye + 75 nM Mitotracker Red, 30 minutes): failed to exhibit such co-localization | staining pattern (THP-1 cells [2]): staining in punctate structures
